{"source": "patent US9228009B2", "about": "“Multi-hierarchical self-assembly of a collagen mimetic peptide” (WILLIAM MARSH RICE UNIVERSITY, priority 2011, dated 2016)", "key": {"[1]": {"assay": "Circular dichroism thermal unfolding", "format": "physicochemical", "procedure": "All peptide concentrations were measured by weight. All samples were adjusted to pH 7 with sodium hydroxide prior to the addition of buffer and then annealed for 15 minutes at 85° C. Lastly, the samples were incubated at room temperature for at least 12 hours prior to characterization to ensure complete assembly. Time course rheological studies are given in FIG. 13 to support this time scale.\nAll spectra and thermal unfolding studies were performed on a Jasco J-810 spectropolarimeter equipped with a Peltier temperature control system. Quartz cells were used with pathlengths of 0.01 cm and 0.1 cm depending on the peptide concentration and buffer. Spectra were collected from 190-250 nm. Melting experiments were performed from 5 to 85° C., monitoring at 225 nm, and the first derivative of the thermal unfolding curve was taken in order to determine the melting temperature of the sample. The molar residual ellipticity (MRE) is calculated from the measured ellipticity using the equation:\n[formula] where θ is the ellipticity in mdeg, m is the molecular weight in g/mol, c is the concentration in mg/ml, l is the pathlength of the cuvette in cm, and nr is the number of amino acids in the peptide. The spectrum for 1.0% by weight is only shown from 250-205 nm due to the increase in background noise for higher concentration samples at lower wavelengths."}, "[2]": {"assay": "Hydrogel control in HBSS without collagenase", "format": "physicochemical", "details": "no collagenase (HBSS), 2.0% by weight gel", "procedure": "(§1) As a simple functional test of the collagen hydrogel mimetic, we compared its ability to be broken down by collagenase (type IV, Invitrogen) the primary component of which is MMP2, a protease known to specifically cleave between the X and Gly residues of an X-Y-Gly repeat found in a triple helix.^42 (Pro-Lys-Gly)4(Pro-Hyp-Gly)4(Asp-Hyp-Gly)4 hydrogels were prepared at a concentration of 2.0% by weight in phosphate buffer and treated with either collagenase in HBSS (Hank's Balanced Salt Solution) or HBSS alone. The samples were allowed to incubate at room temperature (approximately 20° C.), 30° C. and 37° C. Hydrogels of rat-tail collagen were prepared in the same fashion with and without collagenase.\n(§2) Using the previously described gelation procedure, gels of (Pro-Lys-Gly)4(Pro-Hyp-Gly)4(Asp-Hyp-Gly)4 were prepared at a concentration of 2.0% by weight in 10 mM phosphate buffer. Directly after annealing, 100 μl of solution was pipetted into two wells of a 96-well cell culture plate and allowed to incubate at room temperature overnight. A 0.3% by weight collagenase type IV solution was prepared by dissolving 15.0 mg of non-sterile lyophilized enzyme into 5 ml of Hank's Balanced Salt Solution (HBSS). The solution was then filter sterilized using a 0.2 μm filter attached to a syringe. Enzyme and buffer were from Invitrogen (Carlsbad, Calif.). After gelation was complete, 150 μl of collagenase was added on top of one well and 150 μL of HBSS was added on the other serving as a control. Three plates were prepared and incubated at room temperature (about 20° C.), 30° C. and 37° C. Each condition was observed and imaged at 0, 1, 4, 6, 12, 24 and 48 hours after addition of the collagenase or HBSS. Plates containing rat-tail collagen gels at a concentration of 3.0% by weight were prepared and analyzed in an identical manner. Table 1 and Table 2 below show collagenase mediated degradation of (Pro-Lys-Gly)4(Pro-Hyp-Gly)4(Asp-Hyp-Gly)4 and rat-tail collagen hydrogels, respectively. Samples were tested at room temperature (approximately 20° C., 30° C. and 37° C.) with and without collagenase. […] Control samples of (Pro-Lys-Gly)4(Pro-Hyp-Gly)4(Asp-Hyp-Gly)4 at room temperature and 30° C. were intact after 48 hours. However at 37° C. the hydrogels dissolved after 24 hours due to the proximity of this temperature to the triple helices melting temperature."}, "[3]": {"system": "collagenase type IV", "assay": "Collagenase degradation study of hydrogels", "format": "in vitro ADME", "details": "for hydrogel degradation state: w/ collagenase, 2.0% by weight gel", "procedure": "as §1, §2"}}, "note": "Non-standard residues stand in square brackets, D forms with d. Residues, ends and D or L forms follow the SMILES beside them. Hyp = O=C(O)[C@@H]1C[C@@H](O)CN1", "data": [{"smiles": "NCCCC[C@H](NC(=O)[C@@H]1CCCN1)C(=O)NCC(=O)N1CCC[C@H]1C(=O)N[C@@H](CCCCN)C(=O)NCC(=O)N1CCC[C@H]1C(=O)N[C@@H](CCCCN)C(=O)NCC(=O)N1CCC[C@H]1C(=O)N[C@@H](CCCCN)C(=O)NCC(=O)N1CCC[C@H]1C(=O)N1C[C@H](O)C[C@H]1C(=O)NCC(=O)N1CCC[C@H]1C(=O)N1C[C@H](O)C[C@H]1C(=O)NCC(=O)N1CCC[C@H]1C(=O)N1C[C@H](O)C[C@H]1C(=O)NCC(=O)N1CCC[C@H]1C(=O)N1C[C@H](O)C[C@H]1C(=O)NCC(=O)N[C@@H](CC(=O)O)C(=O)N1C[C@H](O)C[C@H]1C(=O)NCC(=O)N[C@@H](CC(=O)O)C(=O)N1C[C@H](O)C[C@H]1C(=O)NCC(=O)N[C@@H](CC(=O)O)C(=O)N1C[C@H](O)C[C@H]1C(=O)NCC(=O)N[C@@H](CC(=O)O)C(=O)N1C[C@H](O)C[C@H]1C(=O)NCC(=O)O", "note": "[(Pro-Lys-Gly)4(Pro-Hyp-Gly)4(Asp-Hyp-Gly)4] (H-PKGPKGPKGPKGP[Hyp]GP[Hyp]GP[Hyp]GP[Hyp]GD[Hyp]GD[Hyp]GD[Hyp]GD[Hyp]G-OH; N-terminus assumed)", "values": [{"measurement": "triple helix melting temperature", "setting": "[1]; 10 mM phosphate buffer, pH 7, first derivative of CD unfolding curve at 225 nm", "value": "40-41 °C"}, {"measurement": "triple helix cooperative transition (melting) temperature", "setting": "[1]; 1.0% by weight in phosphate", "value": 41, "unit": "°C"}, {"measurement": "melting transition", "setting": "[1]; gel-forming samples in additional buffers (water, Tris, PBS), pH 7", "value": "40-41 °C"}, {"measurement": "melting temperature", "setting": "[1]; samples that did not form gels in additional buffers (water, Tris, PBS), pH 7", "value": "around 23 °C"}, {"measurement": "hydrogel degradation state", "setting": "[2]; 20° C., 0 h", "value": "intact"}, {"measurement": "hydrogel degradation state", "setting": "[2]; 20° C., 1 h", "value": "intact"}, {"measurement": "hydrogel degradation state", "setting": "[2]; 20° C., 4 h", "value": "intact"}, {"measurement": "hydrogel degradation state", "setting": "[2]; 20° C., 6 h", "value": "intact"}, {"measurement": "hydrogel degradation state", "setting": "[2]; 20° C., 12 h", "value": "intact"}, {"measurement": "hydrogel degradation state", "setting": "[2]; 20° C., 24 h", "value": "intact"}, {"measurement": "hydrogel degradation state", "setting": "[2]; 20° C., 48 h", "value": "intact"}, {"measurement": "hydrogel degradation state", "setting": "[2]; 30° C., 0 h", "value": "intact"}, {"measurement": "hydrogel degradation state", "setting": "[2]; 30° C., 1 h", "value": "intact"}, {"measurement": "hydrogel degradation state", "setting": "[2]; 30° C., 4 h", "value": "intact"}, {"measurement": "hydrogel degradation state", "setting": "[2]; 30° C., 6 h", "value": "intact"}, {"measurement": "hydrogel degradation state", "setting": "[2]; 30° C., 12 h", "value": "intact"}, {"measurement": "hydrogel degradation state", "setting": "[2]; 30° C., 24 h", "value": "intact"}, {"measurement": "hydrogel degradation state", "setting": "[2]; 30° C., 48 h", "value": "intact"}, {"measurement": "hydrogel degradation state", "setting": "[2]; 37° C., 0 h", "value": "intact"}, {"measurement": "hydrogel degradation state", "setting": "[2]; 37° C., 1 h", "value": "intact"}, {"measurement": "hydrogel degradation state", "setting": "[2]; 37° C., 4 h", "value": "intact"}, {"measurement": "hydrogel degradation state", "setting": "[2]; 37° C., 6 h", "value": "intact"}, {"measurement": "hydrogel degradation state", "setting": "[2]; 37° C., 12 h", "value": "intact"}, {"measurement": "hydrogel degradation state", "setting": "[2]; 37° C., 24 h", "value": "dissolved"}, {"measurement": "hydrogel degradation state", "setting": "[2]; 37° C., 48 h", "value": "dissolved"}, {"measurement": "time after which hydrogel treated with collagenase was fully dissolved", "setting": "[3]; 30° C.", "value": 4, "unit": "h"}, {"measurement": "time after which hydrogel treated with collagenase was fully dissolved", "setting": "[3]; 37° C.", "value": 1, "unit": "h"}, {"measurement": "time after which hydrogel treated with collagenase was fully dissolved", "setting": "[3]; room temperature (approximately 20° C.)", "value": 4, "unit": "h"}, {"measurement": "hydrogel degradation state", "setting": "[3]; 20° C., 0 h", "value": "intact"}, {"measurement": "hydrogel degradation state", "setting": "[3]; 20° C., 1 h", "value": "intact"}, {"measurement": "hydrogel degradation state", "setting": "[3]; 20° C., 4 h", "value": "dissolved"}, {"measurement": "hydrogel degradation state", "setting": "[3]; 20° C., 6 h", "value": "dissolved"}, {"measurement": "hydrogel degradation state", "setting": "[3]; 20° C., 12 h", "value": "dissolved"}, {"measurement": "hydrogel degradation state", "setting": "[3]; 20° C., 24 h", "value": "dissolved"}, {"measurement": "hydrogel degradation state", "setting": "[3]; 20° C., 48 h", "value": "dissolved"}, {"measurement": "hydrogel degradation state", "setting": "[3]; 30° C., 0 h", "value": "intact"}, {"measurement": "hydrogel degradation state", "setting": "[3]; 30° C., 1 h", "value": "intact"}, {"measurement": "hydrogel degradation state", "setting": "[3]; 30° C., 4 h", "value": "dissolved"}, {"measurement": "hydrogel degradation state", "setting": "[3]; 30° C., 6 h", "value": "dissolved"}, {"measurement": "hydrogel degradation state", "setting": "[3]; 30° C., 12 h", "value": "dissolved"}, {"measurement": "hydrogel degradation state", "setting": "[3]; 30° C., 24 h", "value": "dissolved"}, {"measurement": "hydrogel degradation state", "setting": "[3]; 30° C., 48 h", "value": "dissolved"}, {"measurement": "hydrogel degradation state", "setting": "[3]; 37° C., 0 h", "value": "intact"}, {"measurement": "hydrogel degradation state", "setting": "[3]; 37° C., 1 h", "value": "dissolved"}, {"measurement": "hydrogel degradation state", "setting": "[3]; 37° C., 4 h", "value": "dissolved"}, {"measurement": "hydrogel degradation state", "setting": "[3]; 37° C., 6 h", "value": "dissolved"}, {"measurement": "hydrogel degradation state", "setting": "[3]; 37° C., 12 h", "value": "dissolved"}, {"measurement": "hydrogel degradation state", "setting": "[3]; 37° C., 24 h", "value": "dissolved"}, {"measurement": "hydrogel degradation state", "setting": "[3]; 37° C., 48 h", "value": "dissolved"}]}]}
